The nature of this experiment: Kinetic constant for galactosyltransferase inhibition was determined.

The Ki is a dissociation constant, usually derived from enzyme kinetics or from competition with a known ligand. With `O=c1ccn([C@@H]2O[C@H](COP(=O)(O)OP(=O)(O)OP(=O)(O)O)[C@@H](O)[C@H]2O)c(=O)[nH]1` [uridine 5'-(tetrahydrogen triphosphate)], the Ki is 128 µM.
Molecule `O=c1ccn(C2O[C@H](COP(=O)(O)OP(=O)(O)C3O[C@H](CO)[C@@H](O)[C@H](O)[C@H]3O)[C@@H](O)[C@H]2O)c(=O)[nH]1` (some centres not stated) gave a Ki of 165 µM.

These data come from BindingDB's records for doi:10.1021/jm00391a020 (1987).
